Measurements reported in US20170016037A1, “Method for Increasing the Solubility of Methionine by Mineral Addition and Acid Treatment” (CJ CHEILJEDANG CORPORATION, priority 2009, published 2017).
Where two headings read alike, the source gives them in different places.

What was measured:
[1] = pH 2; cited from earlier work
[2] = cited from earlier work
[3] = cited from earlier work; for solubility in the aqueous solution: generally

Question: With `CSCCC(N)C(=O)O` (racemic) [DL-methionine] as the compound, how does the “solubility of DL-methionine with acid treatment” value [1] read?
Answer: 18 % (w/v)

Question: And the “solubility of DL-methionine with use of mineral” value ([2]; U.S. Pat. No. 5,430,164, mineral)?
Answer: up to 12 % (w/v)

Question: What about the “solubility in the aqueous solution” value [3] of the same compound?
Answer: about 5 % (w/v)

Question: What about the “result of the same experiment using DL-methionine” value (from here on “result of the same experiment”) (as Example 1 (manganese sulfide, 0.1 M sulfuric acid; 50% solution), DL-methionine 99% Sigma) of the same compound?
Answer: identical results

Question: And the “result of the same experiment” value (as Example 2 (zinc sulfide, 0.1 M sulfuric acid; 50% solution))?
Answer: identical results

Question: What about the “result of the same experiment” value (as Example 3 (3.75% minerals, 0.1 M sulfuric acid; 50% solution)) of the same compound?
Answer: identical results

Question: And the “result of the same experiment” value (as Example 4 (1.88% minerals, 0.1 M sulfuric acid; 50% solution))?
Answer: identical results

Question: With `CSCC[C@H](N)C(=O)O` (racemic) [methionine] as the compound, how does the “maximum methionine solution concentration” value ([2]; U.S. Pat. No. 5,430,164, total 3.5 to 3.9 M minerals (3.35 M zinc sulfate, 0.167 to 0.569 M ferric chloride), 1 L) read?
Answer: ≤ 50%

Question: What about the “solubility of methionine in water” value ([3]; room temperature, generally known) of the same compound?
Answer: 50 to 55 mg/mL

Question: What about the “methionine solubility maximized by combination of mineral addition and acid addition” value (summary statement, mineral amount less than 15% of the method used before) of the same compound?
Answer: 50%

Question: With `CSCC[C@H](N)C(=O)O` [L-methionine] as the compound, how does the “solubility in the aqueous solution” value [3] read?
Answer: about 5 % (w/v)

Question: And the methionine solution concentration (L-methionine crystal powder purified to 99% or more from fermentation/enzymatic conversion solution, same manner as Examples 1 to 4)?
Answer: ≥ 50%

Question: And the “solubility of L-methionine” value (L-methionine-containing solution produced by fermentation and enzymatic conversion reaction)?
Answer: up to 35%
